Source: patent publication US6696427B1, “Use of bisphosphonates for the prevention and treatment of infectious processes” (Jomaa Pharmaka GmbH, priority 1998, dated 2004)

Tested on: γδ-T cells
Assay: activatability of γδ-T cells in mononuclear cells isolated from blood of treated test subjects
Type: in vivo, human
Procedure: […] After the third infusion, a blood sample was taken from the subjects. The mononuclear cells were isolated from the blood. The activatability of the γδ-T cells was then tested. A full description is published in Jomaa et al. FEMS Immunol. Med. Microbiol. September 1999; 25(4); 371-8.
In contrast, cells from control subjects could be activated.

Structure (SMILES)	γδ-T cell activation by antigens obtained from microorganisms (healthy test subjects, infusion of 90 mg at fortnightly intervals, blood sample after the third infusion, isolated mononuclear cells)	γδ-T cell activation by antigens obtained from microorganisms (test subjects, 1 mg per treatment, protocol from Example 1)
NCCC(O)(P(=O)(O)O)P(=O)(O)O [pamidronic acid, 3-amino-1-hydroxypropylidene-1,1-bisphosphonic acid]	no γδ-T cell activation	–
CCCCCN(C)CCC(O)(P(=O)(O)O)P(=O)(O)O [ibandronic acid, 3-methylpentylamino-1-hydroxypropylidene-1,1-bisphosphonic acid]	–	no γδ-T cell activation
